Among the data in patent publication US20070004660A1, “Synergistic Modulation of Flt3 Kinase Using Alkylquinolines and Alkylquinazolines” (priority 2005, published 2007) are IC50 values, retold here.

SMILES strings stand for the structures.

A word on the IC50: it is the concentration needed to halve the response being measured. Higher therefore signals lower potency.

The target of test [1] is T1, isolated kinase domain of the human FLT3 receptor (a.a. 571-993) (Homo sapiens, UniProt P36888).
T1 construct: human FLT3 receptor (a.a. 571-993)
T1 sequence (P36888 571-993): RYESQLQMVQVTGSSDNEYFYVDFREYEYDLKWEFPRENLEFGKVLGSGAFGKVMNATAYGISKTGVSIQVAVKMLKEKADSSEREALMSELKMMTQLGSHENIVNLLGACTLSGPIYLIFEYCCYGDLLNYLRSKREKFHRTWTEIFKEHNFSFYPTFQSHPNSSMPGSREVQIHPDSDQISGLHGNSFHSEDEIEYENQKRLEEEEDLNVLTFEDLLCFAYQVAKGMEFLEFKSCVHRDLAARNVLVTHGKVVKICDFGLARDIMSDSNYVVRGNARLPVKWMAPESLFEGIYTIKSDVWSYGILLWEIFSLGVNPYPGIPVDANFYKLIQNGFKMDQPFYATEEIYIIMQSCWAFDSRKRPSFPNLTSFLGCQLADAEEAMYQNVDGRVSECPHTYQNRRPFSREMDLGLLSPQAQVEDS
Kind of test: FLT3 fluorescence polarization kinase assay. Format: biochemical. The settings on record: 150 uM ATP; uncertainty ±10%. A general note: Polarisation of emitted light reports the rotation of a fluorescent probe.

The subject of the next test is MV4-11 cells. In words: Inhibition of MV4-11 cell proliferation (CellTiterGlo, 72 h). Format: cell-based. The settings on record: Homo sapiens; 72 h growth inhibition; uncertainty ±20%. On the technique in general: ATP-based viability assays read luminescence as a measure of living cells.

`O=C1CCCN1CCCOc1ccc2c(C3CCN(C(=O)Nc4cnc(N5CCCC5)nc4)CC3)ncnc2c1` [Example 90, 4-{7-[3-(2-Oxo-pyrrolidin-1-yl)-propoxy]-quinazolin-4-yl}-piperidine-1-carboxylic acid (2-pyrrolidin-1-yl-pyrimidin-5-yl)-amide]: the IC50 in test [1] turned out to be 73 nM; in the test with MV4-11 cells, 187 nM.
In the case of `O=C(Nc1ccc(N2CCOCC2)nc1)N1CCC(c2ncnc3cc(OCCN4CCOC4=O)ccc23)CC1` [Example 91, 4-{7-[2-(2-Oxo-oxazolidin-3-yl)-ethoxy]-quinazolin-4-yl}-piperidine-1-carboxylic acid (6-morpholin-4-yl-pyridin-3-yl)-amide], the IC50 in test [1] was determined as 3 nM; in the test on MV4-11 cells it was 98 nM.
For `O=C(Nc1ccc(N2CCCC2)nc1)N1CCC(c2ncnc3cc(OCCN4CCOC4=O)ccc23)CC1` [Example 92, 4-{7-[2-(2-Oxo-oxazolidin-3-yl)-ethoxy]-quinazolin-4-yl}-piperidine-1-carboxylic acid (6-pyrrolidin-1-yl-pyridin-3-yl)-amide] the same measures were 0.2 nM and 21 nM.
For `CC(C)Oc1ccc(NC(=O)N2CCC(c3ncnc4cc(OCC5CCN(C)CC5)ccc34)CC2)cc1` [Example 93, 4-[7-(1-Methyl-piperidin-4-ylmethoxy)-quinazolin-4-yl]-piperidine-1-carboxylic acid (4-isopropoxy-phenyl)-amide] the same measures were 0.2 nM and 9 nM.
Take `CN1CCC(COc2ccc3c(C4CCN(C(=O)Nc5ccc(N6CCOCC6)cc5)CC4)ncnc3c2)CC1` [Example 94, 4-[7-(1-Methyl-piperidin-4-ylmethoxy)-quinazolin-4-yl]-piperidine-1-carboxylic acid (4-morpholin-4-yl-phenyl)-amide]: the IC50 in test [1] is 1 nM; in the test on MV4-11 cells, 60 nM.
On to `O=C(Nc1ccc(N2CCCC2)nc1)N1CCC(c2ncnc3cc(OCCN4CCOCC4)ccc23)CC1` [Example 95, 4-[7-(2-Morpholin-4-yl-ethoxy)-quinazolin-4-yl]-piperidine-1-carboxylic acid (6-pyrrolidin-1-yl-pyridin-3-yl)-amide], for which the values for the IC50 (in test [1]; in the test on MV4-11 cells) were 8 nM and 56 nM, respectively.
As for `O=C(Nc1ccc(N2CCOCC2)cc1)N1CCC(c2ncnc3cc(OCCN4CCOCC4)ccc23)CC1` [Example 96, 4-[7-(2-Morpholin-4-yl-ethoxy)-quinazolin-4-yl]-piperidine-1-carboxylic acid (4-morpholin-4-yl-phenyl)-amide], the values for the IC50 (in test [1]; in the test on MV4-11 cells) were 36 nM and 235 nM, respectively.
The like results for `CC(=O)N1CCN(CCOc2ccc3c(C4CCN(C(=O)Nc5ccc(N6CCOCC6)cc5)CC4)ncnc3c2)CC1` [Example 97, 4-{7-[2-(4-Acetyl-piperazin-1-yl)-ethoxy]-quinazolin-4-yl}-piperidine-1-carboxylic acid (4-morpholin-4-yl-phenyl)-amide] were, in that order, 28 nM and 262 nM.
As to `O=C(Nc1ccc(N2CCOCC2)cc1)N1CCC(c2ncnc3cc(OCCC4CCCCN4)ccc23)CC1` (stereo not shown) [Example 98, 4-[7-(2-Piperidin-2-yl-ethoxy)-quinazolin-4-yl]-piperidine-1-carboxylic acid (4-morpholin-4-yl-phenyl)-amide], the results for the IC50 (in test [1]; in the test with MV4-11 cells) were 27 nM and 277 nM, respectively.
The like results for `CN1CCC(COc2ccc3c(C4CCN(C(=O)Nc5ccc(N6CCCC6)nc5)CC4)ncnc3c2)CC1` [Example 99, 4-[7-(1-Methyl-piperidin-4-ylmethoxy)-quinazolin-4-yl]-piperidine-1-carboxylic acid (6-pyrrolidin-1-yl-pyridin-3-yl)-amide] were, in that order, 1 nM and 58 nM.
As for `CC(C)Oc1ccc(NC(=O)N2CCC(c3ncnc4cc(N(C)C)ccc34)CC2)cc1` [Example 100, 4-(7-Dimethylamino-quinazolin-4-yl)-piperidine-1-carboxylic acid (4-isopropoxy-phenyl)-amide], the IC50 in test [1] is 80 nM; in the test on MV4-11 cells, 36 nM.
